Key:
Experiment in all cases: relative viability (nuclei count vs DMSO), 5 days (fraction); higher = more cells survive
[1] = compound: COc1cc2nccc(Oc3ccc(NC(=O)C4(C(=O)Nc5ccc(F)cc5)CC4)cc3)c2cc1OC [Cabozantinib] + CCNC(=O)c1noc(-c2cc(C(C)C)c(O)cc2O)c1-c1ccc(CN2CCOCC2)cc1 [Luminespib] (partner 0.01 µM)
In short: (§1)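 Each reported value is a median over duplicate plates. It expresses relative viability: treated-well nuclei count divided by vehicle-well nuclei count. Lung cancer cell lines in 1536-well plates were dosed by pin tool a day after seeding, alone with one drug or with a fixed anchor-drug dose plus five library-drug doses (not always all listed) in √10 steps, and nuclei were counted after 5 days.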

Zosuquidar + Crizotinib = compound: O[C@@H](COc1cccc2ncccc12)CN1CCN([C@@H]2c3ccccc3[C@@H]3[C@H](c4ccccc42)C3(F)F)CC1 [Zosuquidar] + C[C@@H](Oc1cc(-c2cnn(C3CCNCC3)c2)cnc1N)c1c(Cl)ccc(F)c1Cl [Crizotinib] (partner 1 µM)
In short: as §1

Zosuquidar + Phenformin = compound: O[C@@H](COc1cccc2ncccc12)CN1CCN([C@@H]2c3ccccc3[C@@H]3[C@H](c4ccccc42)C3(F)F)CC1 [Zosuquidar] + N=C(N)NC(=N)NCCc1ccccc1 [Phenformin] (partner 250 µM)
In short: as §1

Zosuquidar + Luminespib = compound: O[C@@H](COc1cccc2ncccc12)CN1CCN([C@@H]2c3ccccc3[C@@H]3[C@H](c4ccccc42)C3(F)F)CC1 [Zosuquidar] + CCNC(=O)c1noc(-c2cc(C(C)C)c(O)cc2O)c1-c1ccc(CN2CCOCC2)cc1 [Luminespib] (partner 0.01 µM)
In short: as §1

Cell Line	relative viability ([1]; first compound 0.02 µM)	relative viability ([1]; first compound 0.06325 µM)	relative viability ([1]; first compound 0.2 µM)	relative viability ([1]; first compound 0.6325 µM)	relative viability ([1]; first compound 2 µM)	relative viability (Zosuquidar + Crizotinib; first compound 0.01 µM)	relative viability (Zosuquidar + Crizotinib; first compound 0.03162 µM)	relative viability (Zosuquidar + Crizotinib; first compound 0.1 µM)	relative viability (Zosuquidar + Crizotinib; first compound 0.3162 µM)	relative viability (Zosuquidar + Crizotinib; first compound 1 µM)	relative viability (Zosuquidar + Phenformin; first compound 0.01 µM)	relative viability (Zosuquidar + Phenformin; first compound 0.03162 µM)	relative viability (Zosuquidar + Phenformin; first compound 0.1 µM)	relative viability (Zosuquidar + Phenformin; first compound 0.3162 µM)	relative viability (Zosuquidar + Phenformin; first compound 1 µM)	relative viability (Zosuquidar + Luminespib; first compound 0.01 µM)	relative viability (Zosuquidar + Luminespib; first compound 0.03162 µM)	relative viability (Zosuquidar + Luminespib; first compound 0.1 µM)	relative viability (Zosuquidar + Luminespib; first compound 0.3162 µM)	relative viability (Zosuquidar + Luminespib; first compound 1 µM)
NCI-H2085	0.472	0.498	0.464	0.467	0.432	0.822	0.823	0.899	0.792	0.874	0.736	0.682	0.479	0.877	0.69	0.425	0.526	0.531	0.44	0.471
NCI-H1792	–	0.404	0.501	0.334	0.325	0.912	0.771	0.776	0.954	0.977	0.35	0.287	0.279	0.31	0.295	0.334	0.234	0.38	0.673	0.293
NCI-H2405	0.615	0.83	0.648	0.629	0.588	0.889	0.82	0.757	0.819	0.825	0.406	0.348	0.344	0.46	0.388	0.671	0.687	0.589	0.654	0.824
ABC-1	0.458	0.494	0.83	1.11	0.758	1.19	1.17	1.41	1.31	1.08	0.253	0.257	0.252	0.256	0.266	0.682	0.742	0.748	0.603	0.474
201T	1.12	1.08	1.04	1.06	1.03	0.986	0.891	0.996	0.983	1.04	0.449	0.444	0.404	0.468	0.472	1.02	1	0.961	1.12	1.04
NCI-H1755	0.33	0.419	0.54	0.344	0.403	0.859	0.924	0.839	0.881	0.876	0.425	0.621	0.489	0.624	0.589	0.335	0.729	0.564	0.358	0.471
NCI-H650	–	0.784	0.952	0.751	0.724	0.641	0.762	–	0.731	0.721	0.464	0.42	0.379	0.482	0.448	0.96	0.764	0.809	0.777	0.904
NCI-H1651	0.881	0.879	0.908	0.733	0.946	0.849	0.965	0.854	0.869	0.87	0.314	0.343	0.282	0.401	0.307	0.897	0.973	0.655	0.862	0.792
NCI-H1437	1.14	1.14	1.13	1.09	1	0.868	0.994	0.92	0.911	0.897	0.31	0.327	0.287	0.313	0.328	1.1	1.14	1.05	1.13	1.11
NCI-H1975	0.221	0.258	0.233	0.219	0.212	0.923	0.941	1.01	0.924	1.09	0.397	0.378	0.417	0.42	0.399	0.264	0.174	0.217	0.213	0.182
BEN	0.3	0.414	0.326	0.352	0.257	1.01	0.923	0.827	0.821	0.77	0.268	0.245	0.263	0.265	0.26	0.374	0.218	0.381	0.274	0.329
NCI-H460	0.0282	0.0334	0.0334	0.0351	0.0448	0.813	0.906	1.01	0.916	1.02	0.48	0.508	0.445	0.529	0.498	0.0346	0.0269	0.0352	0.0358	0.0277
NCI-H1944	0.739	0.818	0.754	0.719	0.762	1.03	1.09	1.03	1.04	1.12	0.19	0.192	0.196	0.225	0.196	0.76	0.655	0.722	0.785	0.651
HOP-62	1.03	1	0.902	0.881	0.838	0.829	1.01	0.85	1	0.864	0.7	0.637	0.688	0.719	0.684	0.878	0.947	0.914	0.99	0.896
NCI-H3122	0.111	0.102	0.0937	0.0876	0.101	0.271	0.274	0.24	0.275	0.252	0.346	0.38	–	0.377	0.319	0.095	0.0891	0.0947	0.0965	0.0865
NCI-H1650	0.187	0.202	0.185	0.185	0.169	0.888	1.02	0.974	1.01	1.02	0.391	0.321	0.383	0.443	0.353	0.178	0.183	0.204	0.203	0.202
NCI-H1355	0.806	0.852	0.682	0.738	0.871	1.05	0.997	0.987	1.15	1.05	0.466	0.438	0.371	0.502	0.471	0.741	0.752	0.644	0.822	0.824
NCI-H2170	0.729	0.952	0.587	0.857	0.849	1.18	1.22	1.21	1.19	1.17	0.388	0.463	0.393	0.395	0.445	0.663	0.716	0.599	0.92	0.582
NCI-H1734	0.186	0.206	0.22	0.203	0.186	0.64	0.566	0.662	0.72	0.705	0.395	0.372	0.407	0.466	0.385	0.222	0.251	0.182	0.187	0.184
LXF-289	0.683	0.764	0.689	0.715	0.662	0.768	0.861	0.799	0.816	0.876	0.52	0.502	0.484	0.543	0.5	0.665	0.762	0.675	0.711	0.581
SK-LU-1	0.225	0.209	0.207	0.192	0.21	0.974	0.981	1.1	0.932	0.911	0.547	0.522	0.531	0.632	0.557	0.228	0.201	0.177	0.204	0.219
NCI-H2087	0.163	0.185	0.193	0.168	0.158	0.839	1.05	0.817	0.915	0.836	0.426	–	0.363	0.545	0.492	0.155	–	0.184	0.195	0.16
SK-MES-1	0.835	1	0.9	0.875	0.729	0.977	0.99	0.955	1.03	1.02	0.661	0.622	0.644	0.607	0.637	0.72	0.732	0.732	0.881	0.938
NCI-H2228	0.162	0.167	0.175	0.122	0.134	0.524	0.598	0.44	0.338	0.607	0.291	0.338	0.256	0.47	0.257	0.124	0.163	0.185	0.171	0.206
H3255	0.885	1.13	–	0.905	0.893	0.885	0.832	0.669	0.945	0.857	0.34	0.373	0.326	0.38	0.36	1.02	0.925	0.666	1.05	0.814
HCC-15	0.374	0.361	0.515	0.394	0.214	0.821	0.865	0.71	0.856	0.874	0.44	0.441	0.436	0.497	0.504	0.122	0.5	0.21	0.222	0.533
PC-14	0.198	0.139	–	0.237	0.179	0.837	1.02	0.801	0.938	0.759	0.502	0.533	0.447	0.645	0.47	0.129	–	0.135	0.135	0.124
